Measurements as given in patent US20090042865A1, “DNA-PK INHIBITORS” (priority 2007, published 2009).
Where two headings read alike, the source gives them in different places.

Columns and labels:
DNA-PK = DNA-PK (Homo sapiens, UniProt P78527); assay: DNA-PK inhibition assay (ELISA, phosphorylation of GST-p53N66); type: biochemical, Mammalian (isolated from HeLa cell nuclear extract)
Procedure: In order to assess the inhibitory action of the compounds against DNA-PK in vitro, the following assay was used to determine IC50 values.
To the assay mix, varying concentrations of inhibitor (in DMSO at a final concentration of 1%) were added. After 10 minutes of incubation, ATP was added to give a final concentration of 50 μM along with a 30mer double stranded DNA oligonucleotide (final concentration of 0.5 ng/ml) to initiate the reaction. After 1 hour with shaking, 150 μl of phosphate buffered saline (PBS) was added to the reaction and 5 μl then transferred to a 96 well opaque white plate containing 45 μl of PBS per well where the GSTp53N66 substrate was allowed to bind to the wells for 1 hour. To detect the phosphorylation event on the serine 15 residue of p53 elicited by DNA-PK a p53 phosphoserine-15 antibody (Cell Signaling Technology) was used in a basic ELISA procedure. An anti-rabbit HRP conjugated secondary antibody (Pierce) was then employed in the ELISA before the addition of chemiluminescence reagent (NEN Renaissance) to detect the signal as measured by chemiluminescent counting via a TopCount NXT (Packard).
The enzyme activity for each compound is then calculated using the following equation: […]
These are determined over a range of different concentrations, normally from 10 μM down to 0.001 μM. Such IC50 values are used as comparative values to identify increased compound potencies.

cells = conditions: cited from earlier work
PI 3-kinase = conditions: stated to be the same as towards DNA-PK; cited from earlier work
HeLa cells = assay: Survival Enhancement Ratio, clonogenic survival assay after 2 Gray irradiation; type: cell-based; conditions: prior-art compound of WO 03/024949; concentration not given
Procedure: The Survival Enhancement Ratio (SER) is a ratio of the enhancement of cell kill elicited by the DNA-PK inhibitor after 2 Grays of irradiation compared to […]. DNA-PK inhibitors were used at a concentration of 25, 50, 100 and/or 500 nM. Radiation was delivered by a Faxitron 43855D machine at a dose rate of 1 Gy pre minute The SER at 2 Gray irradiation was calculated from the formula:
The degree of cell killing was monitored by a standard clonogenic survival assay. Briefly, tissue culture treated 6-well plates were seeded with HeLa cells at an appropriate concentration to give 100-200 colonies per well and returned to the incubator in order to allow the cells to attach. Four hours later, compound or vehicle control was added to the cells. The cells were then incubated for 1 hour in the presence of inhibitor prior to irradiation at 2 Gray using a Faxitron 43855D cabinet X-ray machine. The cells were then incubated for a further 16 hours before the media was replaced with fresh media in the absence of DNA-PK inhibitor. After 8 days, colonies formed were fixed and stained with Giemsa (Sigma, Poole, UK) and scored using an automated colony counter (Oxford Optronics Ltd, Oxford, UK). The data was calculated as described above.

[1] = mean, DNA-PK from HeLa nuclear extract, 50 μM ATP, read-out: IC50 (mean IC50 of the compounds)
[2] = IC50 (mean IC50 of the compounds), mean, DNA-PK from HeLa nuclear extract, 50 μM ATP

SMILES	IC50 (DNA-PK; mean IC50, read-out: IC50)	IC50 (DNA-PK; [1])	IC50 (DNA-PK; [2])	further results
CC1CN(c2ccc(-c3cccc4c(=O)cc(N5CCOCC5)oc34)c3sc4ccccc4c23)CC(C)N1 (stereo not shown) [Compound 1g]	–	–	12 nM	IC50 (DNA-PK; IC50, mean IC50): < 50 nM
CCN1CCN(c2ccc(-c3cccc4c(=O)cc(N5CCOCC5)oc34)c3sc4ccccc4c23)CC1 [Compound 1b]	–	–	8 nM	IC50 (DNA-PK; IC50, mean IC50): < 50 nM
O=c1cc(N2CCOCC2)oc2c(-c3ccc(N4CCCC(F)C4)c4c3sc3ccccc34)cccc12 (stereo not shown) [Compound 1m]	–	–	136 nM	–
O=c1cc(N2CCOCC2)oc2c(-c3ccccc3)cccc12 [LY294002]	–	–	–	sensitisation of cells to the effects of IR (cells): weakly sensitise; IC50 (PI 3-kinase): ~1000 nM
CN(C)C1CCN(c2ccc(-c3cccc4c(=O)cc(N5CCOCC5)oc34)c3sc4ccccc4c23)CC1 [Compound 1n]	–	–	13 nM	IC50 (DNA-PK; IC50, mean IC50): < 50 nM
O=c1cc(N2CCOCC2)oc2c(-c3ccc(N4CCNCC4)c4c3sc3ccccc34)cccc12 [Compound 1a, 2-Morpholin-4-yl-8-(1-piperazin-1-yl-dibenzothiophen-4-yl)-chromen-4-one]	–	–	11 nM	IC50 (DNA-PK; IC50, mean IC50): < 50 nM
CCOC1CCN(c2ccc(-c3cccc4c(=O)cc(N5CCOCC5)oc34)c3sc4ccccc4c23)CC1 [Compound 1o]	–	–	400 nM	–
CC(C)(C)OC(=O)N1CCCN(c2ccc(-c3cccc4c(=O)cc(N5CCOCC5)oc34)c3sc4ccccc4c23)CC1 [Compound 1h]	–	–	86 nM	–
CC(C)N1CCN(c2ccc(-c3cccc4c(=O)cc(N5CCOCC5)oc34)c3sc4ccccc4c23)CC1 [Compound 1e]	–	–	17 nM	IC50 (DNA-PK; IC50, mean IC50): < 50 nM
O=C(C1CCCO1)N1CCN(c2ccc(-c3cccc4c(=O)cc(N5CCOCC5)oc34)c3sc4ccccc4c23)CC1 (stereo not shown) [Compound 1k]	–	–	80 nM	–
CC(=O)N1CCN(c2ccc(-c3cccc4c(=O)cc(N5CCOCC5)oc34)c3sc4ccccc4c23)CC1 [Compound 1j]	–	–	31 nM	–
O=c1cc(N2CCOCC2)oc2c(-c3cccc4c3sc3ccccc34)cccc12 [reference compound]	–	–	–	SER (HeLa cells): 1.3; IC50 (DNA-PK; IC50, prior-art compound of WO 03/024949, methods as below in the patent): 10 to 12 nM
COC1CCN(c2ccc(-c3cccc4c(=O)cc(N5CCOCC5)oc34)c3sc4ccccc4c23)CC1 [Compound 1p]	–	–	173 nM	–
O=c1cc(N2CCOCC2)oc2c(-c3ccc(N4CCC(N5CCOCC5)CC4)c4c3sc3ccccc34)cccc12 [Compound 1f]	–	–	24 nM	IC50 (DNA-PK; IC50, mean IC50): < 50 nM
O=c1cc(N2CCOCC2)oc2c(-c3ccc(N4CCN(CCOCCO)CC4)c4c3sc3ccccc34)cccc12 [Compound 1d]	–	–	8 nM	IC50 (DNA-PK; IC50, mean IC50): < 50 nM
CC(C)(C)OC(=O)N1CCN(c2ccc(-c3cccc4c(=O)cc(N5CCOCC5)oc34)c3sc4ccccc4c23)CC1 [Compound 1c, 4-[4-(2-Morpholin-4-yl-4-oxo-4H-chromen-8-yl)-dibenzothiophen-1-yl]-piperazine-1-carboxylic acid tert-butyl ester]	–	–	447 nM	–

The next lines start with results.

IC50 (DNA-PK; mean IC50, read-out: IC50)	IC50 (DNA-PK; [1])	IC50 (DNA-PK; [2])	SMILES	further results
< 50 nM	17 nM	–	O=c1cc(N2CCOCC2)oc2c(-c3ccc(N4CCN(CC5CC5)CC4)c4c3sc3ccccc34)cccc12 [Compound 2g]	–
< 50 nM	11 nM	–	CC(=O)C(C)N1CCN(c2ccc(-c3cccc4c(=O)cc(N5CCOCC5)oc34)c3sc4ccccc4c23)CC1 (stereo not shown) [Compound 2a]	–
< 50 nM	21 nM	–	CCS(=O)(=O)N1CCN(c2ccc(-c3cccc4c(=O)cc(N5CCOCC5)oc34)c3sc4ccccc4c23)CC1 [Compound 3b]	–
–	43 nM	–	O=c1cc(N2CCOCC2)oc2c(-c3ccc(N4CCN(C5CCCCC5O)CC4)c4c3sc3ccccc34)cccc12 (stereo not shown) [Compound 2k]	–
< 50 nM	7 nM	–	CCOCCN1CCN(c2ccc(-c3cccc4c(=O)cc(N5CCOCC5)oc34)c3sc4ccccc4c23)CC1 [Compound 2e]	–
< 50 nM	3 nM	–	O=c1cc(N2CCOCC2)oc2c(-c3ccc(N4CCN(CCO)CC4)c4c3sc3ccccc34)cccc12 [Compound 2m]	–
< 50 nM	6 nM	–	COCCN1CCN(c2ccc(-c3cccc4c(=O)cc(N5CCOCC5)oc34)c3sc4ccccc4c23)CC1 [Compound 2c]	–
< 50 nM	11 nM	–	CCCN1CCN(c2ccc(-c3cccc4c(=O)cc(N5CCOCC5)oc34)c3sc4ccccc4c23)CC1 [Compound 2f]	–
< 50 nM	24 nM	–	CS(=O)(=O)N1CCN(c2ccc(-c3cccc4c(=O)cc(N5CCOCC5)oc34)c3sc4ccccc4c23)CC1 [Compound 3a]	–
–	7 nM	–	NCCN1CCN(c2ccc(-c3cccc4c(=O)cc(N5CCOCC5)oc34)c3sc4ccccc4c23)CC1 [Compound 2l]	–
–	9 nM	–	CCCOCCN1CCN(c2ccc(-c3cccc4c(=O)cc(N5CCOCC5)oc34)c3sc4ccccc4c23)CC1 [Compound 2j]	–
< 50 nM	7 nM	–	CC(C)NC(=O)CN1CCN(c2ccc(-c3cccc4c(=O)cc(N5CCOCC5)oc34)c3sc4ccccc4c23)CC1 [Compound 2o]	–
< 50 nM	4 nM	–	COCCOCCN1CCN(c2ccc(-c3cccc4c(=O)cc(N5CCOCC5)oc34)c3sc4ccccc4c23)CC1 [Compound 2b]	–
–	21 nM	–	O=c1cc(N2CCOCC2)oc2c(-c3ccc(N4CCN(CC5CCCO5)CC4)c4c3sc3ccccc34)cccc12 (stereo not shown) [Compound 2i]	–
